Target: T1, PC-TP (Homo sapiens, UniProt Q9UKL6)
T1 sequence (Q9UKL6 1-214): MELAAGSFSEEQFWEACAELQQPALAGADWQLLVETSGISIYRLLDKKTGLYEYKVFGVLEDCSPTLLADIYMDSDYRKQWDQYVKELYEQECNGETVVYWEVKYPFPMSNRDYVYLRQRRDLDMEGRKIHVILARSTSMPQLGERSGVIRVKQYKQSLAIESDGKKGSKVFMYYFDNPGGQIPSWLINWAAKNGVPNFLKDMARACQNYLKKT
Assay: PC-TP inhibition assay (Wagle et al. method)
Format: biochemical
Details: Table 1, concentration value
Protocol: (§1) The compounds in Table 1 and 2 were assayed for their ability to inhibit PC-TP and StarD10, respectively, using a known assay method (see Wagle et al., 2008. Anal. Biochem. 383:85-92, which is incorporated herein by reference in its entirety). Further, certain compounds were also tested for their ability to inhibit StarD7 (see Table 2).

SMILES	IC50
O=C(Nc1cc(C(F)(F)F)cc(C(F)(F)F)c1)C(Sc1cccc[n+]1[O-])c1ccccc1 (stereo not drawn) [Compound 20, 2-(2-(3,5-bis(trifluoromethyl)phenylamino)-2-oxo-1-phenylethylthio)pyridine 1-oxide]	13 µM
Cc1cc(C)nc(NS(=O)(=O)c2ccc(NC(=O)NC(=O)c3ccccc3Cl)cc2)n1 [Compound 5, 2-chloro-N-(4-(N-(4,6-dimethylpyrimidin-2-yl)sulfamoyl)phenylcarbamoyl) benzamide]	30 µM
O=C(Nc1cc(Cl)cc(Cl)c1)C(Sc1cccc[n+]1[O-])c1ccccc1Cl (stereo not drawn) [Compound 21, 2-(1-(2-chlorophenyl)-2-(3,5-dichlorophenylamino)-2-oxoethylthio)pyridine 1-oxide]	15 µM
O=C(Nc1cccc(C(F)(F)F)c1)C(Sc1cccc[n+]1[O-])c1ccccc1 (stereo not drawn) [Compound 19, 2-(2-oxo-1-phenyl-2-(3-(trifluoromethyl)phenylamino)ethylthio)pyridine 1-oxide]	11 µM
O=C(Nc1cc(C(F)(F)F)ccc1Cl)C(Sc1cccc[n+]1[O-])c1ccccc1 (stereo not drawn) [Compound 31, 2-(2-(2-chloro-5-(trifluoromethyl)phenylamino)-2-oxo-1-phenylethylthio)pyridine 1-oxide]	> 100 µM
Cc1cc(NS(=O)(=O)c2ccc(NC(=O)NC(=O)c3ccc(Cl)cc3Cl)cc2)nc(C)n1 [Compound 13, 2,4-dichloro-N-(4-(N-(2,6-dimethylpyrimidin-4-yl)sulfamoyl)phenylcarbamoyl) benzamide]	2.3 µM
Cc1cc(C)nc(NS(=O)(=O)c2ccc(NC(=O)NC(=O)c3ccc(Cl)cc3Cl)cc2)c1 [Compound 7, 2,4-dichloro-N-(4-(N-(4,6-dimethylpyridin-2-yl)sulfamoyl)phenylcarbamoyl) benzamide]	5 µM
Cc1cc(C)nc(NS(=O)(=O)c2ccc(NC(=O)NC(=O)c3ccc(Cl)cc3)cc2)n1 [Compound 6, 4-chloro-N-(4-(N-(4,6-dimethylpyrimidin-2-yl)sulfamoyl)phenylcarbamoyl) benzamide]	26 µM
Cc1cc(C)nc(NS(=O)(=O)c2ccc(NC(=O)NC(=O)c3cccc(Cl)c3Cl)cc2)n1 [Compound 9, 2,3-dichloro-N-(4-(N-(4,6-dimethylpyrimidin-2-yl)sulfamoyl)phenylcarbamoyl) benzamide]	3.2 µM
COc1ccccc1NC(=O)C(Sc1cccc[n+]1[O-])c1ccccc1 (stereo not drawn) [Compound 34, 2-(2-(2-methoxyphenylamino)-2-oxo-1-phenylethylthio)pyridine 1-oxide]	4 µM
O=C(Nc1cc(Cl)cc(Cl)c1)C(Sc1cccc[n+]1[O-])c1cccc2ccccc12 (stereo not drawn) [Compound 23, 2-(2-(3,5-dichlorophenylamino)-1-(naphthalen-1-yl)-2-oxoethylthio)pyridine 1-oxide]	12 µM
COc1ccc(NC(=O)C(Sc2cccc[n+]2[O-])c2ccccc2)cc1Cl (stereo not drawn) [Compound 17, 2-(2-(3-chloro-4-methoxyphenylamino)-2-oxo-1-phenylethylthio)pyridine 1-oxide]	20 µM
Cc1cc(C)nc(N(C)S(=O)(=O)c2ccc(NC(=O)NC(=O)c3ccc(Cl)cc3Cl)cc2)n1 [Compound 12, 2,4-dichloro-N-(4-(N-(4,6-dimethylpyrimidin-2-yl)-N-methylsulfamoyl)phenylcarbamoyl) benzamide]	2.3 µM
COc1ccccc1C(Sc1cccc[n+]1[O-])C(=O)Nc1cc(Cl)cc(Cl)c1 (stereo not drawn) [Compound 22, 2-(2-(3,5-dichlorophenylamino)-1-(2-methoxyphenyl)-2-oxoethylthio)pyridine 1-oxide]	4.1 µM
CCOc1ccccc1NC(=O)C(Sc1cccc[n+]1[O-])c1ccccc1 (stereo not drawn) [Compound 32, 2-(2-(2-ethoxyphenylamino)-2-oxo-1-phenylethylthio)pyridine 1-oxide]	> 100 µM
Cc1cc(C)nc(NS(=O)(=O)c2ccc(NC(=S)NC(=O)c3ccc(Cl)cc3Cl)cc2)n1 [Compound 1, 2,4-dichloro-N-(4-(N-(4,6-dimethyl-pyrimidin-2-yl)sulfamoyl)phenylcarbamothioyl) benzamide]	3.2 µM
Cc1cc(C)nc(NS(=O)(=O)c2ccc(N(C)C(=O)NC(=O)c3ccc(Cl)cc3Cl)cc2)n1 [Compound 11, 2,4-dichloro-N-((4-(N-(4,6-dimethylpyrimidin-2-yl)sulfamoyl)phenyl)(methyl)carbamoyl)benzamide]	> 50 µM
O=C(Nc1ccccc1Cl)C(Sc1cccc[n+]1[O-])c1ccccc1 (stereo not drawn) [Compound 33, 2-(2-(2-chlorophenylamino)-2-oxo-1-phenylethylthio)pyridine 1-oxide]	15 µM
O=C(Nc1ccc(Cl)cc1C(F)(F)F)C(Sc1cccc[n+]1[O-])c1ccccc1 (stereo not drawn) [Compound 28, 2-(2-(4-chloro-2-(trifluoromethyl)phenylamino)-2-oxo-1-phenylethylthio)pyridine 1-oxide]	~50 µM
Cc1cc(C)nc(NS(=O)(=O)c2ccc(NC(=O)NC(=O)c3ccc(Cl)c(Cl)c3)cc2)n1 [Compound 10, 3,4-dichloro-N-(4-(N-(4,6-dimethylpyrimidin-2-yl)sulfamoyl)phenyl-carbamoyl)benzamide]	30 µM
Cc1cc(C)cc(NS(=O)(=O)c2ccc(NC(=O)NC(=O)c3ccc(Cl)cc3Cl)cc2)c1 [Compound 14]	20 µM

Same assay, conditions: at 30 μM

SMILES	inhibition at 30 µM
O=C(Nc1cc(Cl)cc(Cl)c1)C(Sc1cc2ccccc2c[n+]1[O-])c1ccccc1 (stereo not drawn) [Compound 24, 3-(2-(3,5-dichlorophenylamino)-2-oxo-1-phenylethylthio)isoquinoline 2-oxide]	25%

Same assay, conditions: at 50 μM

SMILES	inhibition at 50 µM
COc1ccc(C(Sc2cccc[n+]2[O-])C(=O)Nc2cc(Cl)cc(Cl)c2)cc1 (stereo not drawn) [Compound 25, 2-(2-(3,5-dichlorophenylamino)-1-(4-methoxyphenyl)-2-oxoethylthio)pyridine 1-oxide]	30%
O=C(Nc1cc(Cl)cc(Cl)c1)C(Sc1cccc[n+]1[O-])c1ccc2ccccc2c1 (stereo not drawn) [Compound 26, 2-(2-(3,5-dichlorophenylamino)-1-(naphthalen-2-yl)-2-oxoethylthio)pyridine 1-oxide]	20%

Same assay, conditions: at 100 μM

SMILES	inhibition at 100 µM
Cc1cc(C)nc(NS(=O)(=O)c2ccc(NC(=S)NC(=O)c3ccccc3)cc2)n1 [Compound 3, N-(4-(N-(4,6-dimethylpyrimidin-2-yl)sulfamoyl)phenylcarbamothioyl) benzamide]	45%
Cc1cc(C)nc(NS(=O)(=O)c2ccc(NC(=S)NC(=O)c3ccc(F)cc3)cc2)n1 [Compound 2, N-(4-(N-(4,6-dimethylpyrimidin-2-yl)sulfamoyl)phenylcarbamothioyl)-4-fluorobenzamide]	55%

Same assay, conditions: compound fluorescence in the fluorescence-based assay

SMILES	Activity (PC-TP), result in words
CCN(CC)CCN(C(=O)Nc1ccc(S(=O)(=O)Nc2nc(C)cc(C)n2)cc1)C(=O)c1ccc(Cl)cc1Cl [Compound 29, 2,4-dichloro-N-(2-(diethylamino)ethyl)-N-((4-(N-(4,6-dimethylpyrimidin-2-yl)sulfamoyl)phenyl)carbamoyl)benzamide]	High fluoroescense
CCN(CC)CCN(c1nc(C)cc(C)n1)S(=O)(=O)c1ccc(NC(=O)NC(=O)c2ccc(Cl)cc2Cl)cc1 [Compound 30, 2,4-dichloro-N-((4-(N-(2-(diethylamino)ethyl)-N-(4,6-dimethylpyrimidin-2-yl)sulfamoyl)phenyl)carbamoyl)benzamide]	High fluorescense

Target: T2, StarD10 (Homo sapiens, UniProt Q9Y365)
T2 sequence (Q9Y365 1-291): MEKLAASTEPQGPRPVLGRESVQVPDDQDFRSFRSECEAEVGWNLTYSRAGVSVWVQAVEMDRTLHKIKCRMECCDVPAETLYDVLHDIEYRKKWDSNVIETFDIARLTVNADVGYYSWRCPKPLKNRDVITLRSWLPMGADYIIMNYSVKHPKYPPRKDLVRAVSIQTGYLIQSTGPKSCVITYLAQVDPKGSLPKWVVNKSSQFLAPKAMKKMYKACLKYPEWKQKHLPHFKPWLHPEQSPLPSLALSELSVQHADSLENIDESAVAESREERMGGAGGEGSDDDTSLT
Assay: StarD10 inhibition assay
Format: biochemical
Details: not given
Protocol: as §1

SMILES	IC50
Cc1cc(NS(=O)(=O)c2ccc(NC(=O)NC(=O)c3ccc(Cl)cc3Cl)cc2)nc(C)n1 [Compound 13, 2,4-dichloro-N-(4-(N-(2,6-dimethylpyrimidin-4-yl)sulfamoyl)phenylcarbamoyl) benzamide]	20 µM
Cc1cc(C)nc(NS(=O)(=O)c2ccc(NC(=O)NC(=O)c3cccc(Cl)c3Cl)cc2)n1 [Compound 9, 2,3-dichloro-N-(4-(N-(4,6-dimethylpyrimidin-2-yl)sulfamoyl)phenylcarbamoyl) benzamide]	39 µM
COc1ccccc1NC(=O)C(Sc1cccc[n+]1[O-])c1ccccc1 (stereo not drawn) [Compound 34, 2-(2-(2-methoxyphenylamino)-2-oxo-1-phenylethylthio)pyridine 1-oxide]	15 µM
Cc1cc(C)nc(N(C)S(=O)(=O)c2ccc(NC(=O)NC(=O)c3ccc(Cl)cc3Cl)cc2)n1 [Compound 12, 2,4-dichloro-N-(4-(N-(4,6-dimethylpyrimidin-2-yl)-N-methylsulfamoyl)phenylcarbamoyl) benzamide]	11 µM
O=C(Nc1ccccc1Cl)C(Sc1cccc[n+]1[O-])c1ccccc1 (stereo not drawn) [Compound 33, 2-(2-(2-chlorophenylamino)-2-oxo-1-phenylethylthio)pyridine 1-oxide]	23 µM
